Data reported in US20110166126A1, “Compositions and Methods for Modulating Endophthalmitis Using Fluoroquinolones” (priority 2007, published 2011).
Values after ≈ are worked out from the molar mass of the structure shown. “Also recorded” adds a separate entry of the source. One block for each compound: values may come before it.

Tests used:
[1] = tested on: IL-1β induced IL-8 release in THP-1 monocytes; test: Effect on IL-1β-induced cytokine (IL-8) release from human THP-1 monocytes (Luminex); format: cell-based; details: for IC50: Homo sapiens, THP-1, 30 ng/mL IL-1β, four-parameter logistic fit, read-out: IC50 for inhibition of IL-1β induced IL-8 release; for IC50 / Effect on IL-1β induced IL-8 release: 18 h
Method: Each treatment was performed in triplicate. Media was collected by centrifugation and used for determination of cytokine content using a cytokine Luminex kit. The alamarBlue assay was performed to evaluate cell viability.
After determining the optimal concentration of IL-1β to induce cytokine release (30 ng/mL), cells were pre-cultured in RPMI-1640 medium containing 10% dialyzed FBS in a T-75 flask. […] Each treatment was performed in triplicate. Media were collected and used for determination of cytokine content using a cytokine Luminex kit. AlamarBlue assay was performed to evaluate the cell viability.
(§1) Luminex: Median fluorescence intensity (MFI) was used to obtain the concentration of each cytokines in pg/ml based on the standard curve of each cytokine assayed by Luminex. The linear range of the standard curve for each cytokine was used for determination of cytokine concentration.
To determine inhibition of IL-1β-induced cytokine release into the medium by dexamethasone or fluoroquinolone compounds as well cell viability, statistical analysis was performed using one-way ANOVA-Dunnett's test on raw data, and P<0.05 was considered statistically significant.
A concentration vs. effect curve was plotted for experiment 2, using averaged data from selected samples. […] Data were fitted to a re-parameterized four-parameter logistic equation using similar methodology as that previously described, and utilizing the statistical analysis software JMP8.

[2] = tested on: LPS-stimulated cytokine production in human THP-1 monocytes; test: Inhibition of LPS-induced cytokine expression in human THP-1 monocytes (multiplex Luminex); format: cell-based; design: key to Inhibition of LPS-stimulated G-CSF production / Inhibition of LPS-stimulated GM-CSF production / Inhibition of LPS-stimulated IL-12p40 production / Inhibition of LPS-stimulated IL-1α production / Inhibition of LPS-stimulated IL-1β production / Inhibition of LPS-stimulated IL-1ra production / Inhibition of LPS-stimulated IL-6 production / Inhibition of LPS-stimulated IL-8 production / Inhibition of LPS-stimulated IP-10 production / Inhibition of LPS-stimulated MCP-1 production / Inhibition of LPS-stimulated MIP-1α production / Inhibition of LPS-stimulated VEGF production: “X” signifies significant inhibition at a particular concentration
Method: Human THP-1 monocytes (ATCC TIB 202) were purchased from American Type Culture Collection (Manassas, Va.) and maintained in RPMI 1640 medium (Invitrogen, Carlsbad, Calif.) supplemented with 10% fetal bovine serum (“FBS”, Invitrogen, Carlsbad, Calif.), 100 U/mL of penicillin (Invitrogen, Carlsbad, Calif.), and 100 μg/mL of streptomycin (Invitrogen, Carlsbad, Calif.) at 37° C. in a humidified incubator with 5% CO2. THP-1 cells were pre-cultured in RPMI 1640 medium containing 10% dialyzed serum for 24 h. […] Each treatment was performed in triplicate.
Samples were analyzed using multiplex bead technology, which utilizes microspheres as the solid support for immunoassays and allows the analysis of all cytokines from each sample (D. A. Vignali, J. Immunol. Methods, Vol. 243, 243-255 (2000)). Sixteen cytokines were measured according to the manufacturer's instructions. Briefly, 50 μl, of medium samples were incubated with antibody-coated capture beads overnight at 4° C. Washed beads were further incubated with biotin-labeled anti-human cytokine antibodies for 2 hours at room temperature followed by incubation with streptavidin-phycoerythrin for 30 min. Samples were analyzed using Luminex 200™ (Luminex, Austin, Tex.) and Beadview software v1.0 (Upstate Cell Signaling Solutions, Temecula, Calif.). Standard curves of known concentrations of recombinant human cytokines were used to convert fluorescence units (median fluorescence intensity) to cytokine concentration in pg/mL. Only the linear portions of the standard curves were used to quantify cytokine concentrations, and in instances where the fluorescence reading exceeded the linear range of the standard curve, an appropriate dilution was performed to ensure that the concentration was in the linear portion of the curve.
All cytokine concentrations (pg/mL) were expressed as mean±standard deviation. Statistical analysis comparing effects of treatment across groups was performed using a one-way ANOVA with a Dunnett's post-hoc comparison test using either vehicle control or LPS treatment as references. For all assays, p≦0.05 was predetermined as the criterion of statistical significance.

THP-1 monocytes = test: IL-1β and LPS induced IL-8 release from THP-1 monocytes (experiment 1); format: cell-based, Human; details: 300, 100, 60, 30 and 10 ng/mL, 18 h
Method: Human monocytic (THP-1) cells were pre-cultured in basal RPMI-1640 medium (commercially available, for example, from Sigma Aldrich) containing 10% dialyzed FBS in a T-75 flask. After 24 h, cells were seeded in 48-well plates in RPMI-1640 medium containing 2% dialyzed FBS at a density of 5.0×10^5 cells/mL with vehicle, IL-1β (300, 100, 60, 30 and 10 ng/mL) and LPS (1 μg/mL) for 18 h (Table 3-1). Each treatment was performed in triplicate. Media were collected and used for determination of cytokine content using a cytokine Luminex kit. The alamarBlue assay was performed to evaluate the cell viability.
as §1
Data was expressed as mean±SD. To determine induction of cytokine release into the medium by IL-1β or LPS, statistical analysis was performed using one-way ANOVA-Dunnett's test, and P<0.05 was considered statistically significant.

[3] = tested on: primary human corneal epithelial cells (HCEpiC); details: earlier study (PH07038); comparable or better potency compared to moxifloxacin; cited from earlier work
[4] = tested on: LPS-stimulated cytokine production in human THP-1 monocytes; details: earlier study [8] (PH07025); better potency compared to moxifloxacin; cited from earlier work
[5] = 1 μg/mL, 10 μg/mL LPS, 18 hours
[6] = 10 μg/mL, 10 μg/mL LPS, 18 hours
[7] = 30 μg/mL, 10 μg/mL LPS, 18 hours
[8] = LPS-induced cytokine production, THP-1 monocytes

IC50 [1]: 10.9 ± 4.8 µg/mL (≈ 27.2 µM)
Compound: COc1c(N2C[C@@H]3CCCN[C@@H]3C2)c(F)cc2c(=O)c(C(=O)O)cn(C3CC3)c12 [Moxifloxacin, moxifloxacin, reference compound]
Inhibition of LPS-stimulated IL-12p40 production [2, 5]: X
Inhibition of LPS-stimulated IL-1ra production [2, 6]: X
Inhibition of LPS-stimulated IL-6 production [2, 6]: X
Inhibition of LPS-stimulated IL-12p40 production [2, 6]: X
Inhibition of LPS-stimulated IL-1ra production [2, 7]: X
Inhibition of LPS-stimulated IL-1α production [2, 7]: X
Inhibition of LPS-stimulated IL-1β production [2, 7]: X
Inhibition of LPS-stimulated IL-8 production [2, 7]: X
Inhibition of LPS-stimulated IL-12p40 production [2, 7]: X
Inhibition of LPS-stimulated IP-10 production [2, 7]: X
Inhibition of LPS-stimulated MIP-1α production [2, 7]: X
Inhibition of LPS-stimulated VEGF production [2, 7]: X
Concentration at which a significant inhibitory effect was observed for IL-1ra [2, 8]: 10 µg/mL
Concentration at which a significant inhibitory effect was observed for IL-1α [2, 8]: 30 µg/mL
Concentration at which a significant inhibitory effect was observed for IL-1β [2, 8]: 30 µg/mL
Concentration at which a significant inhibitory effect was observed for IL-6 [2, 8]: 10 µg/mL
Concentration at which a significant inhibitory effect was observed for IL-8 [2, 8]: 30 µg/mL
Concentration at which a significant inhibitory effect was observed for IL-12p40 [2, 8]: 1 µg/mL
Concentration at which a significant inhibitory effect was observed for IP-10 [2, 8]: 30 µg/mL
Concentration at which a significant inhibitory effect was observed for MIP-1α [2, 8]: 30 µg/mL

Compound: IL-1β: interleukin-1β, used to induce cytokine release in THP-1 cells
Stimulation of IL-8 release (THP-1 monocytes): stimulated

IC50 [1]: 7.5 µg/mL (≈ 19 µM)
Compound: N[C@@H]1CCCCN(c2c(F)cc3c(=O)c(C(=O)O)cn(C4CC4)c3c2Cl)C1 [BOL-303224-A, besifloxacin]
Effect on IL-1β induced IL-8 release ([1]; 10 μg/mL): significantly reduced; also recorded: diminished
Effect on IL-1β induced IL-8 release ([1]; 30 μg/mL and 10 μg/mL): significantly reduced
Concentration needed to reduce IL-1β-induced IL-8 release relative to moxifloxacin ([1]; THP-1 cells): at a lower concentration than moxifloxacin
Effect on IL-1β-stimulated cytokine expression in HCEpiC [3]: significantly inhibited
Effect on lipopolysaccharide (LPS)-stimulated cytokine expression in THP-1 human monocytes [4]: significantly inhibited
Inhibition of LPS-stimulated IL-1α production ([2]; 0.1 μg/mL, 10 μg/mL LPS, 18 hours): X
Inhibition of LPS-stimulated G-CSF production [2, 5]: X
Inhibition of LPS-stimulated IL-1ra production [2, 5]: X
Inhibition of LPS-stimulated IL-1α production [2, 5]: X
Inhibition of LPS-stimulated IL-6 production [2, 5]: X
Inhibition of LPS-stimulated G-CSF production [2, 6]: X
Inhibition of LPS-stimulated IL-1ra production [2, 6]: X
Inhibition of LPS-stimulated IL-1α production [2, 6]: X
Inhibition of LPS-stimulated IL-6 production [2, 6]: X
Inhibition of LPS-stimulated VEGF production [2, 6]: X
Inhibition of LPS-stimulated G-CSF production [2, 7]: X
Inhibition of LPS-stimulated GM-CSF production [2, 7]: X
Inhibition of LPS-stimulated IL-1ra production [2, 7]: X
Inhibition of LPS-stimulated IL-1α production [2, 7]: X
Inhibition of LPS-stimulated IL-1β production [2, 7]: X
Inhibition of LPS-stimulated IL-6 production [2, 7]: X
Inhibition of LPS-stimulated IL-8 production [2, 7]: X
Inhibition of LPS-stimulated IL-12p40 production [2, 7]: X
Inhibition of LPS-stimulated IP-10 production [2, 7]: X
Inhibition of LPS-stimulated MCP-1 production [2, 7]: X
Inhibition of LPS-stimulated MIP-1α production [2, 7]: X
Inhibition of LPS-stimulated VEGF production [2, 7]: X
Effect on LPS-stimulated production of RANTES ([2]; 0.1-30 μg/mL, THP-1 monocytes): Neither moxifloxacin nor compound having Formula IV altered
Effect on LPS-stimulated production of fractalkine ([2]; 0.1-30 μg/mL, THP-1 monocytes): Neither moxifloxacin nor compound having Formula IV altered
Effects on GM-CSF, IL-1β, IL-8, IP-10, MCP-1, and MIP-1α after LPS stimulation (comparison of the two fluoroquinolones) ([2]; FIG. 1): comparable effects
Relative potency on G-CSF, IL-1α, IL-1ra, IL-6, and VEGF ([2]; FIG. 2, LPS-stimulated THP-1 monocytes): better potency than moxifloxacin
Concentration at which a significant inhibitory effect was observed for G-CSF [2, 8]: 1 µg/mL
Concentration at which a significant inhibitory effect was observed for GM-CSF [2, 8]: 30 µg/mL
Concentration at which a significant inhibitory effect was observed for IL-1α [2, 8]: 0.1 µg/mL
Concentration at which a significant inhibitory effect was observed for IL-1β [2, 8]: 30 µg/mL
Concentration at which a significant inhibitory effect was observed for IL-6 [2, 8]: 1 µg/mL
Concentration at which a significant inhibitory effect was observed for IL-8 [2, 8]: 30 µg/mL
Concentration at which a significant inhibitory effect was observed for IL-12p40 [2, 8]: 30 µg/mL
Concentration at which a significant inhibitory effect was observed for IP-10 [2, 8]: 30 µg/mL
Concentration at which a significant inhibitory effect was observed for MCP-1 [2, 8]: 30 µg/mL
Concentration at which a significant inhibitory effect was observed for MIP-1α [2, 8]: 30 µg/mL
Concentration as low as which a significant inhibitory effect was seen on IL-1α ([2]; LPS-stimulated THP-1 monocytes): 100 ng/mL
Concentration at which a significant inhibitory effect was seen on G-CSF ([2]; LPS-stimulated THP-1 monocytes): 1000 ng/mL
Concentration at which a significant inhibitory effect was seen on IL-1ra ([2]; LPS-stimulated THP-1 monocytes): 1000 ng/mL
Concentration at which a significant inhibitory effect was seen on IL-6 ([2]; LPS-stimulated THP-1 monocytes): 1000 ng/mL
